The data set relates to rodent carcinogenicity bioassays, tumor incidence. Kind of data set: CCRIS carcinogenicity studies. The method, boiled down: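 NCI-built, expert-reviewed records of carcinogenicity and related test outcomes (mutagenicity, tumor promotion/inhibition) compiled from published and report sources, historical span 1985-2011, not updated.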

Active and inactive are the calls of the source. No rule for the calls is given here.

With `CCN(CC)C(=O)c1cccc(C)c1`, the carcinogen call is “inactive; negative” (Species: DOG, Strain/Sex: BEAGLE/FEMALE, Route: ORAL, Dose: 0, 30, 100, 400 MG/KG/D IN DIET FOR 52 WK (STUDY DURATION: 52 WK), Dose: 0, 30, 100, 400 MG/KG/D IN DIET FOR 52 WK (STUDY DURATION: 52 WK)); “inactive; negative” (Species: DOG, Strain/Sex: BEAGLE/MALE, Route: ORAL, Dose: 0, 30, 100, 400 MG/KG/D IN DIET FOR 52 WK (STUDY DURATION: 52 WK), Dose: 0, 30, 100, 400 MG/KG/D IN DIET FOR 52 WK (STUDY DURATION: 52 WK)); “inactive; negative” (Species: MOUSE, Strain/Sex: CD-1/MALE, Route: ORAL, Dose: 0, 250, 500, 1000 MG/KG/D IN DIET FOR 78 WK (STUDY DURATION: 78 WK), Dose: 0, 250, 500, 1000 MG/KG/D IN DIET FOR 78 WK (STUDY DURATION: 78 WK)); “inactive; negative” (Species: Mouse, Strain/Sex: CD-1/Female (60/Group), Route: Oral, Dose: 0, 250, 500, 1000 mg/kg in diet for 78 wk, Dose: 0, 250, 500, 1000 mg/kg in diet for 78 wk); “inactive; negative” (Species: Mouse, Strain/Sex: CD-1/Male (60/Group), Route: Oral, Dose: 0, 250, 500, 1000 mg/kg in diet for 78 wk, Dose: 0, 250, 500, 1000 mg/kg in diet for 78 wk); “inactive; negative” (Species: RAT, Strain/Sex: CD-1/FEMALE, Route: ORAL, Dose: 0, 250, 500, 1000 MG/KG/D IN DIET FOR 78 WK (STUDY DURATION: 78 WK), Dose: 0, 250, 500, 1000 MG/KG/D IN DIET FOR 78 WK (STUDY DURATION: 78 WK)). Also, the carcinogen call was “inactive; negative” (Species: RAT, Strain/Sex: CD/FEMALE, Route: ORAL, Dose: 0, 30, 100, 400 MG/KG/D IN DIET FOR 104 WK (STUDY DURATION: 104 WK), Dose: 0, 30, 100, 400 MG/KG/D IN DIET FOR 104 WK (STUDY DURATION: 104 WK)); “inactive; negative” (Species: RAT, Strain/Sex: CD/MALE, Route: ORAL, Dose: 0, 10, 30, 100 MG/KG/D IN DIET FOR 104 WK (STUDY DURATION: 104 WK), Dose: 0, 10, 30, 100 MG/KG/D IN DIET FOR 104 WK (STUDY DURATION: 104 WK)); “inactive; negative” (Species: Rat, Strain/Sex: Charles River CD/Female (60/Group), Route: Oral, Dose: 0, 10, 30, 100 mg/kg in diet for 2 yr, Dose: 0, 10, 30, 100 mg/kg in diet for 2 yr); “inactive; negative” (Species: Rat, Strain/Sex: Charles River CD/Male (60/Group), Route: Oral, Dose: 0, 10, 30, 100 mg/kg in diet for 2 yr, Dose: 0, 10, 30, 100 mg/kg in diet for 2 yr).

On to `Clc1cc2c(cc1Cl)Oc1cc(Cl)c(Cl)cc1O2`, for which the carcinogen call reads like this: (Species: MOUSE, Strain/Sex: B6C3/FEMALE, Route: GAVAGE, Dose: 0, 2.5, 5 UG/KG IN CORN OIL 1/WK FOR 52 WK (STUDY DURATION: 110 WK), Dose: 0, 2.5, 5 UG/KG IN CORN OIL 1/WK FOR 52 WK (STUDY DURATION: 110 WK), Tumor Site: Type of Lesion: LIVER: HEPATOCELLULAR ADENOMA, HEPTOCELLULAR CARCINOMA) “active; positive”; (Species: MOUSE, Strain/Sex: B6C3/FEMALE, Route: INTRAPERITONEAL, Dose: 0, 1, 30, 60, UG/KG 1/WK FOR 5 WK BEGINNING AT 10 D OF AGE (STUDY DURATION: 78 WK), Dose: 0, 1, 30, 60, UG/KG 1/WK FOR 5 WK BEGINNING AT 10 D OF AGE (STUDY DURATION: 78 WK), Tumor Site: Type of Lesion: LIVER: HEPATOCELLULAR ADENOMA, THYMUS: LYMPHOMA) “active; positive”; (Species: MOUSE, Strain/Sex: B6C3/MALE, Route: GAVAGE, Dose: 0, 2.5, 5 UG/KG IN CORN OIL 1/WK FOR 52 WK (STUDY DURATION: 110 WK), Dose: 0, 2.5, 5 UG/KG IN CORN OIL 1/WK FOR 52 WK (STUDY DURATION: 110 WK), Tumor Site: Type of Lesion: LIVER: HEPATOCELLULAR CARCINOMA) “active; positive”; (Species: MOUSE, Strain/Sex: B6C3/MALE, Route: INTRAPERITONEAL, Dose: 0, 1, 30, 60, UG/KG 1/WK FOR 5 WK BEGINNING AT 10 D OF AGE (STUDY DURATION: 78 WK), Dose: 0, 1, 30, 60, UG/KG 1/WK FOR 5 WK BEGINNING AT 10 D OF AGE (STUDY DURATION: 78 WK), Tumor Site: Type of Lesion: LIVER: HEPATOCELLULAR ADENOMA, HEPTOCELLULAR CARCINOMA, THYMUS: LYMPHOMA) “active; positive”; (Species: MOUSE, Strain/Sex: B6C3F1/FEMALE, Route: GAVAGE, Dose: 0, 0.04, 0.2, 2.0 UG/KG SUSPENDED IN 9:1 CORN OIL-ACETONE, Dose: 0, 0.04, 0.2, 2.0 UG/KG SUSPENDED IN 9:1 CORN OIL-ACETONE, Tumor Site: Type of Lesion: LIVER: HEPATOCELLULAR CARCINOMA, THYROID GLAND: FOLLICULAR CELL ADENOMA) “active; positive”; (Species: MOUSE, Strain/Sex: B6C3F1/MALE, Route: GAVAGE, Dose: 0, 0.01, 0.05, 0.5 UG/KG SUSPENDED IN 9:1 CORN OIL-ACETONE, Dose: 0, 0.01, 0.05, 0.5 UG/KG SUSPENDED IN 9:1 CORN OIL-ACETONE, Tumor Site: Type of Lesion: LIVER: HEPATOCELLULAR CARCINOMA) “active; positive”. Moreover, the carcinogen call was “active; positive” (Species: MOUSE, Strain/Sex: SWISS/FEMALE, Route: DERMAL, Dose: 0.005 UG IN ACETONE SUSPENSION 3/WK FOR 99 OR 104 WK (STUDY DURATION: 99 OR 104 WK), Tumor Site: Type of Lesion: INTEGUMENTARY SYSTEM (SUBCUTANEOUS TISSUE): FIBROSARCOMA); “equivocal” (Species: MOUSE, Strain/Sex: SWISS/MALE, Route: DERMAL, Dose: 0.001 UG IN ACETONE SUSPENSION 3/WK FOR 99 OR 104 WK (STUDY DURATION: 99 OR 104 WK), Tumor Site: Type of Lesion: INTEGUMENTARY SYSTEM (SUBCUTANEOUS TISSUE): FIBROSARCOMA); “active; positive” (Species: RAT, Strain/Sex: OSBORNE-MENDEL/FEMALE, Route: GAVAGE, Dose: 0, 0.01, 0.05, 0.5 UG/KG SUSPENDED IN 9:1 CORN OIL-ACETONE, Dose: 0, 0.01, 0.05, 0.5 UG/KG SUSPENDED IN 9:1 CORN OIL-ACETONE, Tumor Site: Type of Lesion: LIVER: NEOPLASTIC NODULE); “active; positive” (Species: RAT, Strain/Sex: OSBORNE-MENDEL/MALE, Route: GAVAGE, Dose: 0, 0.01, 0.05, 0.5 UG/KG SUSPENDED IN 9:1 CORN OIL-ACETONE, Dose: 0, 0.01, 0.05, 0.5 UG/KG SUSPENDED IN 9:1 CORN OIL-ACETONE, Tumor Site: Type of Lesion: THYROID GLAND: FOLLICULAR CELL ADENOMA); “active; positive; highest dose only” (Species: RAT, Strain/Sex: SPRAGUE-DAWLEY/FEMALE, Route: ORAL, Dose: 0, 3, 10, 22, 46, 100 NG/KG/D (STUDY DURATION: 2 YRS), Dose: 0, 3, 10, 22, 46, 100 NG/KG/D (STUDY DURATION: 2 YRS), Tumor Site: Type of Lesion: ORAL MUCOSA: SQUAMOUS CELL CARCINOMA); “inactive; negative” (Species: Rat, Strain/Sex: Harlan Sprague-Dawley/Female (50 dosed animals), Route: Gavage, Dose: 0, 100 ng/kg (Test material solvent: corn oil: acetone (99:1))). The carcinogen call (Species: Rat, Strain/Sex: Harlan Sprague-Dawley/Female, Route: Gavage, Dose: 0, 3, 10, 22, 46, 100 ng/kg (Test material solvent: corn oil: acetone (99:1)), Dose: 0, 3, 10, 22, 46, 100 ng/kg (Test material solvent: corn oil: acetone (99:1)), Tumor Site: Type of Lesion: Liver: Hepatocellular adenoma (0/53, 0/54, 0/53, 1/53, 13/53, 2/50), Cholangiocarcinoma (0/53, 0/54, 0/53, 1/53, 4/53, 2) was “active; positive; findings in pancreas and in liver for hepatocholangioma and cholangiom”; the carcinogen call (Species: Rat, Strain/Sex: Spartan Sprague Dawley/Female (50/Experimental Group; 86 Controls), Route: Oral, Dose: 0, 1, 10, 100 ng/kg in food, 7 days a wk for 2 yr, Dose: 0, 1, 10, 100 ng/kg in food, 7 days a wk for 2 yr) is “active; positive”.

Regarding `CCc1cc(Cc2cc(CC)cc(C(C)(C)C)c2O)c(O)c(C(C)(C)C)c1`, the carcinogen call (Species: RAT, Strain/Sex: WISTAR/MALE, Route: ORAL, Dose: 0, 0.03, 0.1, 0.3% IN DIET FOR DURATION OF STUDY (STUDY DURATION: 18 MO), Dose: 0, 0.03, 0.1, 0.3% IN DIET FOR DURATION OF STUDY (STUDY DURATION: 18 MO)) was “inactive; negative”.

For `c1ccc2c(c1)ccc1cc3ccc4c(c3cc12)CCCC4`, the carcinogen call (Species: MOUSE, Strain/Sex: SWISS/FEMALE, Route: DERMAL, Dose: 0, 37 UG IN ACETONE (0.2%) 2/WK FOR 70 WK FOR A TOTAL DOSE OF 0, 5.2 MG (STUDY DURATION: 100 WK), Dose: 0, 37 UG IN ACETONE (0.2%) 2/WK FOR 70 WK FOR A TOTAL DOSE OF 0, 5.2 MG (STUDY DURATION: 100 WK), Tumor Site: Type of Lesion: SKIN: CARCINOMA, SKIN: PAPILLOMA) was “active; positive”.
